# Assays:
# A4573 xenografts = test: Orthotopic A4573 xenograft, i.p. administration; format: in vivo, SCID/beige mice
# Procedure: All tumor tissues were fixed in 10% neutral buffered formalin for 24 h, dehydrated through a graded series of alcohols and cleared in xylenes prior to embedding in paraffin. Embedded tissues were cut into 5 μm thick sections and stained with hematoxylin and eosin (H&E). Immunohistochemical staining was performed for CD99 and caspase 3 (cleaved). Five micron sections from formalin fixed paraffin embedded tissues were de-paraffinized with xylenes and rehydrated through a graded alcohol series. Heat induced epitope retrieval was performed by immersing the tissue sections at 98° C. for 60 min in 10 mmol/L citrate buffer (pH 6.0). Immunohistochemical staining was performed using a horseradish peroxidase labeled polymer from Agilent (Santa Clara, Calif.) (#K4001, #K4003) according to manufacturer's instructions. Briefly, slides were treated with 3% hydrogen peroxide and 10% normal goat serum for 10 min each, and exposed to primary antibodies for CD99 (Abcam, #ab8855) at a 1:100 dilution and for caspase 3 (cleaved) (Biocare (Pacheco, Calif.), #CP229A) at a 1:90 dilution in Da Vinci Green for one hour and stained on an DAKO Autostainer. Slides were exposed to the appropriate HRP labeled polymer for 30 min and DAB chromogen (Dako (Santa Clara, Calif.) for 5 min. Slides were counterstained with Hematoxylin (Fisher, Harris Modified Hematoxylin), blued in 1% ammonium hydroxide, dehydrated, and mounted with Acrymount. Consecutive sections with the primary antibody omitted were used as negative controls. The sections were evaluated in a blinded fashion by a board certified pathologist.
# (§1) The antitumor activity of drugs through intraperitoneal (i.p.) administration given once daily was determined. […] The in vivo potencies of drug treatments were evaluated by event-free survival curves, where tumors that reached 1.0 cm^3 in size considered an event.
# [1] = test system: ES cell lines RDES and TC-71; test: Secondary functional screen, growth inhibition in ES cell lines; format: cell-based; details: Homo sapiens; 10 μmol/L, 48 h, WST-1
# [2] = test system: MG63.3 OS cells transfected with DCK siRNA; test: Response to clofarabine after DCK siRNA, OS cells; format: cell-based, human; details: MG63.3, DCK siRNA
# Excerpt: The expression of DCK and CD99 was suppressed transiently by using a validated small interfering RNA (siRNA) duplexes targeting coding region (Invitrogen (Carlsbad, Calif.); #s186 and #s8768, respectively). Silencer™ Select Negative Control No. 2 siRNA (Invitrogen) was used as the control. Cells were transfected with DCK or CD99 or control siRNA oligonucleotides using X-tremeGene siRNA transfection reagent (Roche Diagnostics (Basel, Switzerland)) according to the manufacturer's protocol. The cells were analyzed for DCK and CD99 knockdown after 45 or 72 h by immunoblotting.
# TC-71 xenografts = test: Orthotopic TC-71 xenograft, i.p. administration; format: in vivo, SCID/beige mice; details: clofarabine 30 mg/kg, cladribine 20 mg/kg; for event-free survival: i.p. once daily 14 days, vs vehicle; for tumor growth: i.p.
# Procedure: as §1
# [3] = test system: MSK1/2 phosphorylation in MG63.3 and U-2 OS cells; test: MSK1/2 phosphorylation by immunoblot, OS cells; format: cell-based, human; details: 1.0 μmol/L, 24 h
# Procedure: (§2) In a parallel set of experiment, cells were also treated with 15 μg/mL of either mouse control IgM or CD99 blocking antibody for the same duration. Total cell lysates were analyzed by immunoblotting for MSK1/2 phosphorylation. […] In a parallel set of experiment, cells were transfected with either siRNA control or siRNA targeting the coding region of CD99 protein. Total cell lysates were analyzed after 48 h by immunoblotting for MSK1/2 phosphorylation after cell transfection. […] In FIG. 23D, SCID/beige mice were implanted with TC-71 xenografts in their tibia. […] Tumor lysates were analyzed by immunoblotting for MSK1/2 phosphorylation.
# (§3) Quantitative analysis of protein bands was performed using ImageJ 1.48v software. Immunoblotting was performed as described above.
# A4573 ES cells = test: Cell viability IC50 (WST-1), A4573; format: cell-based, human; details: Homo sapiens, WST-1, 48 h (FIG. 10B)
# [4] = test system: MSK1/2 phosphorylation in STA-ET-7.2 and TC-32 cells; test: MSK1/2 phosphorylation by immunoblot, ES cells; format: cell-based, human; details: 0.6 μmol/L (STA-ET-7.2) or 0.5 μmol/L (TC-32), 24 h, vs vehicle
# Procedure: as §2, §3
# U-2 OS cells [5] = test: Secondary functional screen, negative control cell line; format: cell-based; details: Homo sapiens, U2OS; 10 μmol/L, 48 h, WST-1; read-out: growth inhibition of OS cell lines (U-2 OS)
# CD99 protein = target: T1, CD99 protein (Homo sapiens, UniProt P14209); test: Cellular thermal shift assay (CETSA) in TC-71 cell lysates; format: binding; details: 3.0 μmol/L, 30 min, high temperatures vs control lysates
# T1 construct: The thermostability of endogenous CD99 protein increased in cell lysates from TC-71 cells; endogenous in cells; host or cells: TC-71 total cell lysate
# T1 sequence (P14209 23-185): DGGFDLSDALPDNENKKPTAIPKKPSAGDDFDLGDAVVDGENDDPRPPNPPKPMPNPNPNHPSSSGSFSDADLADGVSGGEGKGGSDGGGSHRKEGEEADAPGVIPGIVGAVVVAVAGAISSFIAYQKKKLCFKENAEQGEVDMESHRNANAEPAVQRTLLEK
# Procedure: The CETSA method was used according to Martinez Molina et al. (“Monitoring drug target engagement in cells and tissues using the cellular thermal shift assay,” Science 341: 84-87 (2013)) and Jafari et al. (“The cellular thermal shift assay for evaluating drug target interactions in cells,” Nat Protoc 9:2100-22 (2014)). […] The cell lysates in 60 μL volumes were individually heated in thin wall PCR tubes to the indicated temperatures for 3 min, by using Veriti 96-well Thermal Cycler (Applied Biosystems (Foster City, Calif.)). Samples were then centrifuged at 16,000×g for 30 min at 4° C. to remove insoluble proteins, and 40 ul of the resulting supernatants were transferred into new eppendorf tubes for subsequent SDS-PAGE and immunoblotting analysis.
# [6] = test system: CD99-transfected SAOS-2 and U-2 OS cells; test: Real-time proliferation (xCELLigence) of OS cells with forced CD99 expression; format: cell-based, human; details: dose-dependent
# Procedure: U-2 OS and SAOS-2 cells were transfected with pcDNA3.1 expression vector carrying the human full-length CD99 transcript variant 1 cDNA using the X-tremeGene 9 DNA transfection reagent (Roche Diagnostics) according to the manufacturer's recommendations. The expression of CD99 was assessed after 48 h by immunoblotting.
# OS cells express low levels of CD99 and the forced ectopic expression of CD99 reduces their growth. To test whether cladribine can rescue the reduced proliferation phenotype induced by overexpression of CD99, U-2 OS and SAOS-2 cells were transiently transfected with a mammalian expression vector containing cDNA encoding full length human CD99. As expected, CD99-forced expression suppressed cell proliferation compared with empty-vector transfected cells, which was rescued by the addition of cladribine in a dose-dependent manner (FIGS. 7C-D and FIG. 9).
# U-2 OS cells [7] = test: Cell cycle analysis by flow cytometry, OS cells; format: cell-based, human; details: 48 h, U-2 OS compared with ES cells
# Procedure: For the evaluation of cell cycle, cell cultures were incubated with 10 μmol/L bromodeoxyuridine (BrdU) (Sigma-Aldrich) for 1 h in a CO2 atmosphere at 37° C. Harvested cells were fixed in ice-cold 70% ethanol for 30 min. After DNA denaturation with 2 N HCl for 30 min at room temperature, cells were washed with 0.1 M Na2B4O7, pH 8.5 and processed for indirect immunofluorescence staining, using α-BrdU (BD Biosciences (San Jose, Calif.)) diluted 1:4 as a primary MAb and α-mouse FITC (1:100—Thermo Scientific (Waltham, Mass.)) as a secondary antibody. After treatment with 0.5 mg/ml RNase and staining with 20 μg/ml propidium iodide, cells were and analyzed by flow cytometry (FACSCalibur; Becton Dickinson (Franklin Lakes, N.J.)) for cell cycle evaluation and for assessing cell death by DNA content analysis.
Compound,"mitotic figures per field (A4573 xenografts; H&E, 200-fold magnification)","apoptotic cells (A4573 xenografts; H&E, confirmed by caspase-3 immunohistochemistry)","event-free survival (A4573 xenografts; i.p. once daily, clofarabine 30 mg/kg, vs vehicle)","tumor growth (A4573 xenografts; i.p., clofarabine 30 mg/kg)",inhibition at 10 µM [1] [%],response after inhibiting DCK protein expression [2],event-free survival (TC-71 xenografts),event-free survival (TC-71 xenografts; listed as Clofarabine),tumor growth (TC-71 xenografts),phosphorylation levels of MSK1/2 [3],IC50 (A4573 ES cells) [µM],phosphorylation levels of MSK1/2 [4],inhibition at 10 µM (U-2 OS cells [5]) [%],thermostability of endogenous CD99 protein (CD99 protein),rescue of reduced cell proliferation induced by CD99 expression [6],cell cycle effect (U-2 OS cells [7])
Nc1nc(Cl)nc2c1ncn2[C@@H]1O[C@H](CO)[C@@H](O)[C@@H]1F [clofarabine],≤ 3,significant increase,significantly improved,significant inhibition of tumor growth,≥ 70,complete resistance,not statistically significant,significantly improved,significant inhibition of tumor growth,Neither MG63.3 nor U2-OS cells showed a response,0.31,significantly elevated,≤ 10,increased,–,–
Nc1nc(Cl)nc2c1ncn2[C@H]1C[C@H](O)[C@@H](CO)O1 [cladribine],–,–,–,–,–,–,significantly different,–,grew slower,–,–,–,–,–,rescued,more pronounced

# From patent US11202792B2, “CD99 inhibitors and their uses” (GEORGETOWN UNIVERSITY, priority 2016, dated 2021)
